Measurements as given in patent US20230257398A1, “PYRIMIDINE-BASED TRICYCLIC COMPOUND AND USE THEREOF” (Chia Tai Tianqing Pharmaceutical Group Co., Ltd., priority 2020, published 2023).

The molecules below were run against T1, sGC (Homo sapiens, UniProt Q02108+Q02153) (assay: lnCap cell-based cGMP expression assay (stimulating activity for sGC)). Conditions: with DETA-NO, 37° C. 30 min, HTRF cGMP.
T1 construct: Preparation of LNCap Cells; endogenous in cells; host or cells: LNCaP cells (14th generation), no transfection described
T1 sequence (Q02153 1-619): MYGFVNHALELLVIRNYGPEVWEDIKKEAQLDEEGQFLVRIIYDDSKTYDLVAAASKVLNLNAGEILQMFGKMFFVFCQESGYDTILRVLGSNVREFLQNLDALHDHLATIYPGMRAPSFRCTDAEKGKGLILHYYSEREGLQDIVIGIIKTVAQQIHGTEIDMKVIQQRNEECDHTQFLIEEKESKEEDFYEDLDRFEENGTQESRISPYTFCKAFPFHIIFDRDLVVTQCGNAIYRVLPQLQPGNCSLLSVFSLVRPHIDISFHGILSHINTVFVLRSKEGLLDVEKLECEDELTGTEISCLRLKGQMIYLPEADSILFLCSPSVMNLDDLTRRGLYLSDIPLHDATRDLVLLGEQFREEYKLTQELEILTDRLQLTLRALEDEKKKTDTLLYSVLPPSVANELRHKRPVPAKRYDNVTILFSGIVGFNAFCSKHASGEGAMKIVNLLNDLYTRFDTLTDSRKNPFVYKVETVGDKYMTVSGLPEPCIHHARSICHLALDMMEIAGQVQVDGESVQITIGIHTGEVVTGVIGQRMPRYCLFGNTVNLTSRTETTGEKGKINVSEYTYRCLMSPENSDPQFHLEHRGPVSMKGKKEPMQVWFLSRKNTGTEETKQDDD
T1 sequence (Q02108 1-690): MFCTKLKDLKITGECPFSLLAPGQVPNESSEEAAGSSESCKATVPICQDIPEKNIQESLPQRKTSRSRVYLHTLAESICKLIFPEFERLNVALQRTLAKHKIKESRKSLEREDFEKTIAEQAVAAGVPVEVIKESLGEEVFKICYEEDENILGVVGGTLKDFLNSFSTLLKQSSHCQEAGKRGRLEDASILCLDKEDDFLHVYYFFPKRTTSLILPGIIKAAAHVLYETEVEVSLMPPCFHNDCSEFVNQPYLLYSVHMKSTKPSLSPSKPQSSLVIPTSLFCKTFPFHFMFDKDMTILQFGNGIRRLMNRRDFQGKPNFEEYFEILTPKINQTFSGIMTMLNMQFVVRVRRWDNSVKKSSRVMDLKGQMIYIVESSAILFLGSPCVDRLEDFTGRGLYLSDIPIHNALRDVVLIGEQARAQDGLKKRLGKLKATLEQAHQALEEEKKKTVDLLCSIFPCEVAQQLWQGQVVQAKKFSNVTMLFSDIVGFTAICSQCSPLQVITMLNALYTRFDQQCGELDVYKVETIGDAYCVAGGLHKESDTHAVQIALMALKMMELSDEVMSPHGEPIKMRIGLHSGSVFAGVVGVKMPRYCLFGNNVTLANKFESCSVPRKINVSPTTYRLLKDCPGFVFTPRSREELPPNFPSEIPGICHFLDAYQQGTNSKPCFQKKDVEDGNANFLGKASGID
Protocol: I. lnCap Cell-Based cGMP Expression Assay
1) Preparation of Solutions
10% BSA (Bovine Serum Albumin)
10 g of BSA was dissolved in 100 mL of double distilled water (ddH2O) to give 10% BSA.
5 mM DETA (Diethylenetriamine)-NO
10 mg of DETA-NO was weighed out and dissolved in 12.2 mL of double distilled water (ddH2O) to give 5 mM DETA-NO, which was aliquoted and cryopreserved in a freezer at −20° C.
a) To 1 mL of a lysis buffer was added 50 μL of cGMP-D2 (D2-labeled cyclic guanosine monophosphate), and the mixture was well mixed.
b) To 1 mL of a lysis buffer was added 50 μL of anti-cGMP cryptate (Eu^3+ cryptate-labeled anti-cyclic guanosine monophosphate antibody), and the mixture was well mixed.
(1) The compounds were diluted to 5 mM with DMSO. 10 μL of each of the compounds was transferred to a shallow well plate for Echo.
(2) The compounds were gradiently diluted with Echo. Each of the compounds was diluted to obtain 10 concentration gradients, and 50 nL of each of the concentration gradients was added to a 384 microwell plate.
3) Preparation of LNCap Cells
(1) LNCap medium: RPMI1640+10% fetal bovine serum+1% […].
(2) Phosphate buffered saline, pancreatin and the medium used in the process of cell passaging were pre-heated in a water bath at 37° C.
(3) The cells (the 14th generation) were taken out of the 37° C., 5% CO2 incubator, and the old medium was pipetted off the culture flask.
(4) 5 mL of phosphate buffered saline was pipetted into the culture flask to rinse the cells, and then the liquid was discarded.
(5) 3 mL of pancreatin was pipetted into the culture flask. After the culture flask was shaken, the liquid was discarded, and the culture flask was placed in the incubator.
(6) After about 2 min the culture flask was taken out. […] The cell suspension was transferred to a 50 mL centrifuge tube.
(7) 0.7 mL of the cell suspension was pipetted into a counter cup and the cells were counted on a ViCell XR. The remaining cells were centrifuged at 1000 rpm for 5 min, and the supernatant was removed.
(8) The cells were washed by adding 10 mL of the washing buffer and centrifuged at 1000 rpm for 5 min, and the supernatant was removed.
(9) The assay buffer was added to adjust the cell concentration to 1.25×10^6/mL. The cells were added to the microwell plate at 8 μL/well.
4) Formulation and Addition of DETA-NO
(1) 10 μL of 5 mM DETA-NO was added to 1240 μL of the assay buffer and to 1657 μL of the assay buffer to give 40 μM DETA-NO and 30 μM DETA-NO, respectively.
(2) DETA-NO was transferred to the 384 microwell plate at 2 μL/well using Bravo.
(3) The mixtures were centrifuged at 1500 rpm for 5 min. The microwell plate was incubated at 37° C. for 30 min.
5) Preparation of cGMP Standard Curve
(1) 1 mM of the cGMP stock solution was diluted to 10 μM with the assay buffer. Then 4-fold gradient dilution was performed to obtain 11 concentration gradients.
(2) The cGMP dilutions were added to the microwell plate at 10 μL/well.
6) Addition of Detection Reagents and Plate Reading
(1) cGMP-D2 was transferred to the 384 microwell plate at 5 μL/well using Bravo. The mixtures were centrifuged at 1500 rpm for 1 min.
(2) The anti-cGMP cryptate was transferred to the 384 microwell plate at 5 μL/well using Bravo. The mixtures were centrifuged at 1500 rpm for 1 min.
(3) The plate was incubated at room temperature for 1 h.
(4) 665/615 was read using envision.
(1) cGMP standard curve: a standard curve was generated using Graphpad prism based on the cGMP concentrations and 665/615 ratios.
(2) Conversion of HTRF (homogeneous time-resolved fluorescence) ratios (665/615) to cGMP concentrations: in Graphpad prism, the HTRF ratios (665/615) were copied into the ratio column of the cGMP standard curve, and the “Log inhibitor vs response-variable slope” analysis was run with “interpolate” selected to convert the HTRF ratios (665/615) to cGMP concentrations. […]

Row | Compound | MEC: minimum effective concentration to stimulate cGMP production (three times greater than the basal value) in lnCap cells [nM]
1 | O=c1[nH]c2nc(-c3nn(Cc4ccccc4F)c4ncc(F)cc34)nc3c2n1CCN3 [Compound 002] | 81.22
2 | O=C1Cn2c(=O)[nH]c3nc(-c4nn(Cc5ccccc5F)c5ncc(F)cc45)nc(c32)N1 [Compound 004] | 142.79
3 | CC12CCNc3nc(-c4nn(CCC(F)(F)C(F)(F)F)c5ncc(F)cc45)nc(c31)NC2=O (stereo not shown) [Compound 009] | 5.8
4 | CC12CC(=O)Nc3nc(-c4nn(Cc5c(F)cccc5F)c5ncc(F)cc45)nc(c31)NC(=O)C2 [Compound 010] | 51.76
5 | CC12CCC(=O)Nc3nc(-c4nn(Cc5c(F)cccc5F)c5ncc(F)cc45)nc(c31)NC(=O)C2 (stereo not shown) [Compound 011] | 178.6
6 | CC12CC(=O)Nc3nc(-c4nn(CCC(F)(F)C(F)(F)F)c5ncc(F)cc45)nc(c31)NC(=O)C2 [Compound 012] | 118.6
7 | CC12CCC(=O)Nc3nc(-c4nn(Cc5c(F)cccc5F)c5ncc(F)cc45)nc(c31)NC2=O (stereo not shown) [Compound 013] | 3.12
8 | CC12CCC(=O)Nc3nc(-c4nn(CCC(F)(F)C(F)(F)F)c5ncc(F)cc45)nc(c31)NC(=O)C2 (stereo not shown) [Compound 014] | 402.7
9 | CC12CCNc3nc(-c4nn(Cc5c(F)cccc5F)c5ncc(F)cc45)nc(c31)NC2=O (stereo not shown) [Compound 015] | 4.66
10 | CC12CC(=O)Nc3nc(-c4nn(CCC(F)(F)C(F)(F)F)c5ncc(F)cc45)nc(c31)NC2=O (stereo not shown) [Compound 016] | 17.51
11 | CC12CC(=O)Nc3nc(-c4nn(Cc5c(F)cccc5F)c5ncc(F)cc45)nc(c31)NC2=O (stereo not shown) [Compound 017] | 3.46
12 | CC12CCC(=O)Nc3nc(-c4nn(CCC(F)(F)C(F)(F)F)c5ncc(F)cc45)nc(c31)NC2=O (stereo not shown) [Compound 018] | 13.12
13 | CC12CCNc3nc(-c4nn(Cc5c(F)cccc5F)c5ncc(F)cc45)nc(c31)NC(=O)C2 (stereo not shown) [Compound 022] | 24.9
14 | CC12CCNc3nc(-c4nn(CCC(F)(F)C(F)(F)F)c5ncc(F)cc45)nc(c31)NC(=O)C2 (stereo not shown) [Compound 023] | 26.12
15 | CC1(C)C(=O)Nc2nc(-c3nn(Cc4ccccc4F)c4ncc(F)cc34)nc3c2C1C(=O)N3 (stereo not shown) [Compound 031] | 19.78

The next lines start with the values.

Row | MEC: minimum effective concentration to stimulate cGMP production (three times greater than the basal value) in lnCap cells [nM] | Compound
16 | 6.38 | CC12CC(=O)Nc3nc(-c4nn(Cc5ccccc5F)c5ncc(F)cc45)nc(c31)NC2=O (stereo not shown) [Compound 001]
17 | 7.97 | CC12CCNc3nc(-c4nn(Cc5ccccc5F)c5ncc(F)cc45)nc(c31)NC2=O (stereo not shown) [Compound 003]
18 | 55.54 | CC12CC(=O)Nc3nc(-c4nn(Cc5ccccc5F)c5ncc(F)cc45)nc(c31)NC(=O)C2 [Compound 007]
19 | 88.37 | CC12CCC(=O)Nc3nc(-c4nn(Cc5ccccc5F)c5ncc(F)cc45)nc(c31)NC(=O)C2 (stereo not shown) [Compound 008]
20 | 2.4 | CC12CCC(=O)Nc3nc(-c4nn(Cc5ccccc5F)c5ncc(F)cc45)nc(c31)NC2=O (stereo not shown) [Compound 019]
21 | 7.59 | CC12CC(=O)Nc3nc(-c4nn(Cc5ccccc5F)c5ncc(F)cc45)nc(c31)NC2=O (stereo not shown) [Compound 024]
22 | 21.26 | CC12CNC(=O)c3nc(-c4nn(Cc5ccccc5F)c5ncc(F)cc45)nc(c31)NC2=O (stereo not shown) [Compound 028]
23 | 37.34 | CN1C(=O)CC2(C)C(=O)Nc3nc(-c4nn(Cc5ccccc5F)c5ncc(F)cc45)nc1c32 (stereo not shown) [Compound 029]
24 | 84.34 | CN1C(=O)C2(C)CC(=O)Nc3nc(-c4nn(Cc5ccccc5F)c5ncc(F)cc45)nc1c32 (stereo not shown) [Compound 030]
25 | 31.53 | CC12C(=O)Nc3nc(-c4nn(Cc5ccccc5F)c5ncc(F)cc45)nc(c31)NC(=O)C2(F)F (stereo not shown) [Compound 034]
26 | 28.15 | CC12OCCNc3nc(-c4nn(Cc5ccccc5F)c5ncc(F)cc45)nc(c31)NC2=O (stereo not shown) [Compound 039]
27 | 33.55 | CCOC(=O)C12CCOc3nc(-c4nn(Cc5ccccc5F)c5ncc(F)cc45)nc(c31)NC2=O (stereo not shown) [Compound 048]
28 | 126.5 | COC(=O)NC12CCOc3nc(-c4nn(Cc5ccccc5F)c5ncc(F)cc45)nc(c31)NC2=O (stereo not shown) [Compound 049]
